In patent US20260091147A1, “METHOD FOR DETECTING INNATE IMMUNE ACTION IN VIVO USING GPR84-PET” (The Board of Trustees of the Leland Standford Junior …, priority 2023, published 2026):

What was measured:
[1] = target: T1, postsynaptic dopamine D2 receptors (Rattus norvegicus, UniProt P61169); settings: healthy rodents; cited from earlier work
T1 construct: host or cells: healthy rodent brain in vivo

[2] = target: human GPR84-Gαi2 fusion protein (Homo sapiens, UniProt Q9NQS5); experiment: [3H]G9543 competition binding assay, membranes from Flp-In TREx 293 cells; settings: competition with [3H]G9543; read-out: Kd (affinity for GPR84)
Sequence of human GPR84-Gαi2 fusion protein (Q9NQS5 whole entry, the tested form may be a part): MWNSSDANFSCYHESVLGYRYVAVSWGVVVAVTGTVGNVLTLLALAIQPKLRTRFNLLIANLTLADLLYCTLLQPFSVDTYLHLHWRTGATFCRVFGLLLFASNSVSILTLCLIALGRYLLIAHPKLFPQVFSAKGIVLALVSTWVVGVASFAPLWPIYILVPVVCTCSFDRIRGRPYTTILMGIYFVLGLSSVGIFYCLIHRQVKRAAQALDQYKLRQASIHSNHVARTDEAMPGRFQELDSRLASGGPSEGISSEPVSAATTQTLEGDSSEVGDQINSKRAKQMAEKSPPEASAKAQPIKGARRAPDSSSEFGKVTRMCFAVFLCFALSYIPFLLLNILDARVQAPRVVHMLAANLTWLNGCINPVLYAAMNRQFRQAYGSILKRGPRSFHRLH
Description: To determine KD of GLPG38, a competitive binding assay was performed using a membrane preparation from cells expressing GPR84-Gi in addition to [^3H]G9543, a known GPR84 antagonist. [^11C]GLPG38 was then radiosynthesized via [^11C]methylation of desmethyl precursor using [^11C]methyl iodide. […] For animal studies, sepsis was induced in female C57BL/6J mice via intraperitoneal injection of lipopolysaccharide (LPS, 10 mg/kg); vehicle-treated mice were injected with saline alone. Dynamic 60 min PET/CT imaging was performed 24 hr following LPS-administration using [^11C]GLPG38. Subsequently, mice were perfused with PBS to remove blood, and radioactive signal was assessed in CNS and peripheral tissues via gamma counting. Ex vivo autoradiography of sagittal mouse brain sections was conducted to obtain high resolution images of [^11C]GLPG38 binding. To investigate alterations in GPR84 mRNA expression, quantitative polymerase-chain reaction was performed using mouse brain tissue and human monocyte-derived macrophage cells stimulated with LPS 24 hr prior to RNA extraction.

CSF1R = target: T2, CSF1R (Mus musculus, UniProt P09581); settings: LPS 10 mg/kg; cited from earlier work
T2 construct: host or cells: mouse brain in vivo, LPS 10 mg/kg
T2 sequence (P09581 20-977): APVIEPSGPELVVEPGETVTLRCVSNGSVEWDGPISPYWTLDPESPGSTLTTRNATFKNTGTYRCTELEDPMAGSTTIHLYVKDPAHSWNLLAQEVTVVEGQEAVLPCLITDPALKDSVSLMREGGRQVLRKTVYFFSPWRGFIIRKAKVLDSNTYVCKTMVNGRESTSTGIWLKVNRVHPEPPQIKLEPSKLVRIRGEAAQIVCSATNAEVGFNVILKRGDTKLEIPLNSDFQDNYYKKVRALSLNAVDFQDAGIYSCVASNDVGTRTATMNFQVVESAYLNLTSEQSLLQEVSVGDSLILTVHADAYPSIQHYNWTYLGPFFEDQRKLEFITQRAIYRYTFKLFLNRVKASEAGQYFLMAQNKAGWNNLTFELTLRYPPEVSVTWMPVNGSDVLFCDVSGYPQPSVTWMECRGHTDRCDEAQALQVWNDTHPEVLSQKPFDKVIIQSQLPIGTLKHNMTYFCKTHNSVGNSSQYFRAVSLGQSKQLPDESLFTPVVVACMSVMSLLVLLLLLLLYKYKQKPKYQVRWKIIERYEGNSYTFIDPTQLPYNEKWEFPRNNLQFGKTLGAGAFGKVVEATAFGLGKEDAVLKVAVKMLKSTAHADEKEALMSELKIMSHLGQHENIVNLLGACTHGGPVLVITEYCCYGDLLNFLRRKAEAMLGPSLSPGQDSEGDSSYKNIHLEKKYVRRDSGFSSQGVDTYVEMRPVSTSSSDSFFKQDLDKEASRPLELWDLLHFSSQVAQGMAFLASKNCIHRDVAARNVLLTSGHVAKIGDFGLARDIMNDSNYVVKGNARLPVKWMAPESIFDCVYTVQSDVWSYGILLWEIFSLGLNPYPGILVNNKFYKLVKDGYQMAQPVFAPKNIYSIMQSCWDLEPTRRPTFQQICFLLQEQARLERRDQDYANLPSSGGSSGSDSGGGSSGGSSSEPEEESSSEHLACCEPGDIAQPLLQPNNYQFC

[3] = target: T3, purinergic receptor subtype 7 (P2×7) (Mus musculus, UniProt Q9Z1M0); settings: LPS 5 mg/kg; cited from earlier work
T3 construct: host or cells: mouse brain in vivo, LPS 5 mg/kg
T3 sequence (Q9Z1M0 1-595): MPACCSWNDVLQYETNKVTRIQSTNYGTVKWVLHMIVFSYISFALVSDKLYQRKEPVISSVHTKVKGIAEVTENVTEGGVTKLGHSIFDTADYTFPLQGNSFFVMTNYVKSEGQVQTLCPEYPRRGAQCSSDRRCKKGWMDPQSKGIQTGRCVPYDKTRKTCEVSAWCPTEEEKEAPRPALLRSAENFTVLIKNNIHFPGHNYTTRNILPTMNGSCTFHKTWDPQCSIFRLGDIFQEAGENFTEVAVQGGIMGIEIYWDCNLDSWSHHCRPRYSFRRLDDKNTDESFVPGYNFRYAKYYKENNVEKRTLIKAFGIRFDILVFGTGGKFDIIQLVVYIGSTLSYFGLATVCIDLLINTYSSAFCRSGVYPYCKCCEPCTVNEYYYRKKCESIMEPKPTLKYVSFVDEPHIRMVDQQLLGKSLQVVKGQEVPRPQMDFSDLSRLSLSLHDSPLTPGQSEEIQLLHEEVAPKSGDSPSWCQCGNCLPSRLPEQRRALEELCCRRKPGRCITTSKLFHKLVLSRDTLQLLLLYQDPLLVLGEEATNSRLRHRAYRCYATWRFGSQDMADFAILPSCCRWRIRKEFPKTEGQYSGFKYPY

[4] = Description: In vivo stability assay. […] Mice were perfused with PBS buffer (20 mL) under deep anesthesia (5 min, 20 min). The whole brain and liver lobe were removed from mouse place in two separate […] microcentrifuge tubes containing 500 μL acetonitrile, homogenized sample and placed on ice. The well-homogenized samples were transferred to two 1.5 mL microcentrifuge tubes, centrifuged at 9,400 g for 4 min at room temperature. Supernatants were transferred into gamma counting tubes; the pellets were transferred into separate tubes. All supernatants and pellets were counted using gamma counter to measure extraction efficiency. Each of the supernatant (150-200 μL) was transferred into HPLC vials with the inserts and injected into HPLC for radio-metabolic analysis.
At 5 and 20 min post-tracer injection, the analysis of the whole brain and liver was performed using analytical HPLC to assess the presence of potential radiometabolites.

GPR84 [5] = target: T4, GPR84 (Mus musculus, UniProt Q8CIM5); experiment: Ex vivo autoradiography of brain sections from LPS-treated mice; format: in vivo; settings: GLPG1205 5 mg/kg ([11C]GLPG38) or 1 mg/kg (11C-MGX-10S)
T4 construct: tissue Jackson Laboratories; host or cells: female C57BL/6J mice (LPS, saline, EAE or naive): brain, spinal cord and peripheral organs
T4 sequence (Q8CIM5 whole entry): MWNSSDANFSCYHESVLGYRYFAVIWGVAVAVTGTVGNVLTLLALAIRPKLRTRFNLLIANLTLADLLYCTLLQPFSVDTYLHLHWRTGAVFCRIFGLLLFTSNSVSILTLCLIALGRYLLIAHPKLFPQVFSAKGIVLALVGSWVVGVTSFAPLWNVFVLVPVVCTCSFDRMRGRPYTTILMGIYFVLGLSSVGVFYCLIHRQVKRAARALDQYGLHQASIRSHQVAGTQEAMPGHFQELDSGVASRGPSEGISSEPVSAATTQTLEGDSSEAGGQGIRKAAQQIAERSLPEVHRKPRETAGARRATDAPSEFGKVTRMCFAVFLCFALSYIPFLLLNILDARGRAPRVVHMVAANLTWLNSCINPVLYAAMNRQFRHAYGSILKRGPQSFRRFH
Description: To determine KD of GLPG38, a competitive binding assay was performed using a membrane preparation from cells expressing GPR84-Gi in addition to [^3H]G9543, a known GPR84 antagonist. [^11C]GLPG38 was then radiosynthesized via [^11C]methylation of desmethyl precursor using [^11C]methyl iodide. Binding specificity of [^11C]GLPG38 was assessed using human GPR84-stably-expressing human embryonic kidney cells (HEK-293) versus control HEK-293 cells. For animal studies, sepsis was induced in female C57BL/6J mice via intraperitoneal injection of lipopolysaccharide (LPS, 10 mg/kg); vehicle-treated mice were injected with saline alone. Dynamic 60 min PET/CT imaging was performed 24 hr following LPS-administration using [^11C]GLPG38. Subsequently, mice were perfused with PBS to remove blood, and radioactive signal was assessed in CNS and peripheral tissues via gamma counting. Ex vivo autoradiography of sagittal mouse brain sections was conducted to obtain high resolution images of [^11C]GLPG38 binding. To investigate alterations in GPR84 mRNA expression, quantitative polymerase-chain reaction was performed using mouse brain tissue and human monocyte-derived macrophage cells stimulated with LPS 24 hr prior to RNA extraction.
Ex vivo Audoradiography Confirms ^11C-MGX-10S Specificity.

GPR84 [6] = target: T4, GPR84; experiment: Ex vivo biodistribution (gamma counting) of GPR84 tracer in LPS- vs saline-treated mice; settings: 20 min post injection
Description: FIGS. 11A-11B show ex vivo biodistribution and autoradiography. […] At 20 min postinjection, animals were perfused with saline and tissues were collected, weighed, and gamma-counted. […] Statistical analysis was performed using “Unpaired t test with Welch correction”, *=P<0.05. […] Cb=cerebellum, Ctx=cortex, Str=striatum, H=hippocampus, Mb=midbrain, Ob=olfactory bulb, and BS=brain stem.
(§1) To determine KD of GLPG38, a competitive binding assay was performed using a membrane preparation from cells expressing GPR84-Gi in addition to [^3H]G9543, a known GPR84 antagonist. [^11C]GLPG38 was then radiosynthesized via [^11C]methylation of desmethyl precursor using [^11C]methyl iodide. […] Dynamic 60 min PET/CT imaging was performed 24 hr following LPS-administration using [^11C]GLPG38. Subsequently, mice were perfused with PBS to remove blood, and radioactive signal was assessed in CNS and peripheral tissues via gamma counting. Ex vivo autoradiography of sagittal mouse brain sections was conducted to obtain high resolution images of [^11C]GLPG38 binding. To investigate alterations in GPR84 mRNA expression, quantitative polymerase-chain reaction was performed using mouse brain tissue and human monocyte-derived macrophage cells stimulated with LPS 24 hr prior to RNA extraction.

GPR84 [7] = target: T4, GPR84; experiment: Dynamic PET/CT of brain in LPS-induced systemic inflammation vs saline, with or without GLPG1205 block; format: in vivo; settings: LPS 5 mg/kg
Description: as §1
(§2) The count densities were averaged for all volumes of interest at each time point to obtain a time-activity curve (TAC). The TACs were normalized to injected dose, as measured by a CRC-15 PET dose calibrator (Capintec Inc.), and expressed as % injected dose per gram (% ID/g), assuming 1 g/mL. CT was performed in GNEXT depth of interaction (DOI) dual-layer detector system. Scintica VivoQuant software was used to visualize radiotracer uptake and define the 3D volumes of interest. 3D maximum intensity projection (MIP) PET/CT images were created using IRW software.
A range of doses (0.65, 0.75, and 0.90 mg/kg) of GLPG1205 were used to investigate whether the blocking was dose-dependent. […] GLPG1205 was injected intra-venously 10 min prior to radiotracer injection (n=4).

[8] = Dynamic 60 min PET/CT of healthy mice, whole-brain time activity curve; format: in vivo, mouse; settings: healthy mice
Excerpt: A transmission scan was acquired to correct for attenuation during image reconstruction. Following PET imaging, mice were transferred to a SOFIE GNEXT PET/CT for CT acquisition. PET/CT data were co-registered and analyzed using Inveon Research Workplace software to generate images and quantify radiotracer uptake in regions of interest (ROIs). A 3D ROI was manually defined for the whole brain using CT data as anatomical reference, then applied to the full dynamic data set to generate a time activity curve (TAC).
as §2
On days 15-16 after EAE induction, mice were catheterized and placed on the 4-mouse scanning bed of the Sofie GNEXT PET/CT scanner.

[9] = target: T5, synaptic vesicle glycoprotein 2A receptor (Mus musculus, UniProt Q9JIS5); settings: cited from earlier work
T5 construct: host or cells: healthy mouse brain in vivo
T5 sequence (Q9JIS5 whole entry): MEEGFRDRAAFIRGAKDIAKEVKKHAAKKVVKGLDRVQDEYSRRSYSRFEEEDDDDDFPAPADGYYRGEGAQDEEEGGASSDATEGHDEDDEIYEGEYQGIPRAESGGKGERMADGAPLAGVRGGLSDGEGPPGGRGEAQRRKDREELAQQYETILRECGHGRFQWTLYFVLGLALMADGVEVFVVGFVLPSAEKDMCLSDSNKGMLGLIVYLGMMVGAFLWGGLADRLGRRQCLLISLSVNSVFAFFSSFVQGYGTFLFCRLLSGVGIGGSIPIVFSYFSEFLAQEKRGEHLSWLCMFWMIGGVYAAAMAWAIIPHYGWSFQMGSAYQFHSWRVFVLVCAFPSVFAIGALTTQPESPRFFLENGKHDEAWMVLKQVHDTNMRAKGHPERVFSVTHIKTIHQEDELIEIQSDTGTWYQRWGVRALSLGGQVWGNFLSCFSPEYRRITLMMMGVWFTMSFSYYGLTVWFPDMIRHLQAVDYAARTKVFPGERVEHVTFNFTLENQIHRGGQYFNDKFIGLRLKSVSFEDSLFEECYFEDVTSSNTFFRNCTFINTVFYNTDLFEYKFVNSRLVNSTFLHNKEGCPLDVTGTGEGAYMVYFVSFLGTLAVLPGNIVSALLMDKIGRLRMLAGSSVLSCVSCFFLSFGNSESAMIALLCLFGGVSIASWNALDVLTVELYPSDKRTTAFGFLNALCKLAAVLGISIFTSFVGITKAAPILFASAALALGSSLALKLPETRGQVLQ

T1 sequence (P61169 whole entry): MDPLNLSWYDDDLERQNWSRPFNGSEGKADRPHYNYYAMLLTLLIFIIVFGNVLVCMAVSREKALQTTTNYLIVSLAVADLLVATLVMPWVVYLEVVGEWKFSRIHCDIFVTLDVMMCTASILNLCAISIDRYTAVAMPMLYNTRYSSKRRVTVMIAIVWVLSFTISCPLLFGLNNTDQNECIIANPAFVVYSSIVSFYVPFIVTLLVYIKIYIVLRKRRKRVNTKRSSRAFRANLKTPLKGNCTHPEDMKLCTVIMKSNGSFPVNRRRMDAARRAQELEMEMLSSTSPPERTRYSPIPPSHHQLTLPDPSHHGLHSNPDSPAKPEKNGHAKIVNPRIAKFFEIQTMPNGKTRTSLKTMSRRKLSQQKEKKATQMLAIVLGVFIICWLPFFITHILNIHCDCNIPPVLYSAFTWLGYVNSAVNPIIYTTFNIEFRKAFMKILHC

## CCN1CCC[C@H]1CNC(=O)c1c(O)c(Cl)cc(Cl)c1O[11CH3] (racemic) [^11C-Raclopride]
[1]
  Brain 5 min/60 min ratio: ~2
  time of maximum brain uptake: 5 min

## COc1cc2c(cc1C)-c1c(C)c(OC[C@@H]3COCCO3)cc(=O)n1CC2 [GLPG38]
[2]
  Kd: 11.8 nM

## CN1CCN(c2ccc(NC(=O)c3ccc(C#N)o3)c(N3CCCCC3)c2)CC1 [^11C-CPPC, [11C]5-Cyano-N-(4-(4-Methylpiperazin-1-YI)-2-(Piperidin-1-YI)Phenyl)Furan-2-Carboxamide]
CSF1R
  higher binding in mouse brain, LPS vs control animal: 55%

## [11CH3]N1C(=O)CC[C@H]1C(=O)NCc1cccc(C(F)(F)F)c1Cl [^11C-GSK1482160]
[3]
  fold higher binding in brain, LPS vs saline-treated mice: 3.2 fold

## [11CH3]Oc1ccc2c(c1)CCn1c-2cc(OC[C@@H]2COCCO2)nc1=O [^11C-MGX-10S]
[4]; HPLC
  radiometabolite M1 in brain at 20 min post injection: 3%
  radiometabolite M1 in liver at 20 min post injection: 10%
[4]; LPS-treated mice
  intact radiotracer in liver at 20 min post injection: 90%
  intact radiotracer in liver, initial (5 min): 100%
[4]; LPS-treated mice, n=3
  intact radiotracer in brain at 5 min post injection: 100%
  intact radiotracer in brain at 20 min post injection: 97%
GPR84 [5]
  tracer binding in LPS brain sections after pre-blocking with GLPG1205: dramatic reduction
GPR84 [6]
  adipose tissue uptake, saline-treated mice: 0.63±0.15 % ID/g
  kidney uptake, saline-treated mice: 5.32±3.01 % ID/gram
  liver uptake, saline-treated mice: 4.51±0.15 % ID/gram
GPR84 [6]; perfused
  brain uptake, saline-treated mice: 0.45±0.06 % ID/g
GPR84 [6]; LPS 5 mg/kg
  adipose tissue uptake, LPS-treated mice: 1.16±0.50 % ID/g
  kidney uptake, LPS-treated mice: 8.73±3.18 % ID/gram
  liver uptake, LPS-treated mice: 7.08±1.27 % ID/gram
GPR84 [6]; LPS 5 mg/kg, perfused
  brain uptake, LPS-treated mice: 0.84±0.21 % ID/gram
GPR84 [7]; GLPG1205 0.65 mg/kg i.v. 10 min before tracer
  reduction of brain PET signal in LPS mice by GLPG1205 at end of scan: 38.50%
GPR84 [7]
  increase in whole-brain radiotracer uptake, LPS vs saline, 30-60 min integration: approximately 39.27%
GPR84 [7]; 60 min dynamic PET
  higher brain accumulation in LPS vs saline-treated mice at end of scan: 42.46%
[8]
  time of peak brain uptake: ≤ 22.5 s
  whole-brain uptake after washout, end of 60 min scan: 1.89±0.35 % ID/g
[8]; 60 min dynamic scan
  peak whole-brain uptake: 5.90±0.89 % ID/g

## [11CH3]c1cnccc1CN1C[C@@H](c2cc(F)c(F)c(F)c2)CC1=O [^11C-UCBJ]
[9]; healthy mouse brain
  Brain 15 min/90 min ratio: ~3
[9]; healthy mouse
  time of maximum brain uptake: 15 min
